Measurements from patent US20050113579A1, “Naphthalimide synthesis including amonafide synthesis and pharmaceutical preparations thereof” (ChemGenex Therapeutics, Inc., priority 2002, published 2005).
Where a name gives a salt, the structure may show the parent alone.

Tests used:
physchem = assay type: physicochemical
Protocol: Precipitation occurs as pH increases above 6.5. Solubility is about 1 mg/mL at pH 9 and 0.05 mg/mL at pH 11.

[1] = Titration with sodium hydroxide; assay type: physicochemical
Protocol: 561 mg amonafide dihydrochloride (1.57 mmol) was dissolved in 10 mL water to yield a clear red solution with pH at 1.2. With constant stirring, 1N NaOH solution was added. Solution remained clear until pH greater than 6.7. As shown in the titration curve below, 3.3 mmol NaOH was used to neutralize amonafide dihydrochloride in the solution. The calculated mol ratio of amonafide to NaOH was 1:2. [drawing]

[2] = Osmolality of the product; assay type: physicochemical
[3] = Solubility in water (general statements); assay type: physicochemical; conditions: general statement
[4] = free base; background statement; cited from earlier work

SMILES | pH above which precipitation occurs (physchem; as pH increases) | solubility (physchem; pH 1, water) | solubility (physchem; pH 9, aqueous buffer) | solubility (physchem; pH 11, aqueous buffer) | pH of solution ([1]; 561 mg (1.57 mmol) dissolved in 10 mL water, clear red solution) | pH until which solution remained clear ([1]; 1N NaOH added with constant stirring) | osmolality [2] | solubility in water compared to monohydrochloride salt [3] | solubility in water [4]
CN(C)CCN1C(=O)c2cccc3cc(N)cc(c23)C1=O [amonafide dihydrochloride] | above 6.5 | > 250000 µg/mL | ~1000 µg/mL | 50 µg/mL | 1.2 | greater than 6.7 | equivalent to 0.9% sodium chloride solution | more soluble in water | –
CN(C)CCN1C(=O)c2cccc3cc(N)cc(c23)C1=O [Amonafide, 5-amino-2-[(dimethylamine)ethyl]-1H-benz[de-]isoquinoline-1,3-(2H)-dione] | – | – | – | – | – | – | – | – | very poorly soluble
